Molecules are shown by their SMILES. pIC50: −log10 of the molar value.

What is called pIC50 is the IC50 on a negative log10 scale, so that one unit is a factor of ten.

For one experiment, the system named is serum TNF. The experiment can be described thus: In Vivo Mouse LPS/D-Gal Challenge Model. The conditions noted are these: oral, serum TNF vs. vehicle. On the procedure:
In Vivo Mouse LPS/D-Gal Challenge Model.
Efficacy of IRAK4 compounds of the present invention was also evaluated in an in vivo mouse model of endotoxin induced (Lipopolysaccharide (LPS)) inflammation. See: S. Copeland, H. W. Warren, S. F. Lowry, S. E. Calvano, and D. Remick, Clin. Diagn. Lab. Immnol. 2005, 12(1), 60-67. An exemplary protocol for this in vivo model follows.
Female C57/BL6 mice, 8 to 10 weeks old, are orally administered either vehicle or formulated IRAK-4 compound 1 hour prior to the challenge. Vehicle or IRAK4 compound is administered by oral gavage at a volume of 10 mL/kg. One hour post oral delivery of vehicle or compound, the animals are challenged with an intraperitoneal injection (IP) of a solution containing 1 μg/mL LPS and 80 mg/mL D-gal. Each mouse is injected with […] of the solution, for a final challenge dose of 100 ng LPS and 8 mg D-gal. Ninety minutes post LPS/D-gal challenge, animals are euthanized and blood collected. Blood is allowed to clot at room temperature and serum is separated by centrifugation and stored at −80° C. for analysis. Serum TNF and IL-6 are measured by Meso Scale Discovery (MSD) multiplex platform.
The groups consisted of N=10 animals/group. Naïve animals and vehicle control groups were run with each study. Mean cytokine data was plotted and students T-test was performed to calculate significance (t-test, p<0.05 vs. vehicle) of IRAK4 treated group vs. vehicle treated group. Percent inhibition of cytokine induction was calculated for IRAK4 treated group vs. vehicle treated group.
Table 4 contains data from multiple studies with columns for Compound, Dose in mg/kg (mpk) and % inhibition of serum TNF. In cases where doses of certain compounds were repeated in multiple experiments, the average percent inhibition of TNF and standard deviation is shown in the table.

Experiment [1] addresses human IRAK4 FL (Full Length) (Homo sapiens (Human), UniProt Q9NWZ3). The experiment can be described thus: IRAK4 Enzymatic DELFIA Assay, Protocol A. It counts as biochemical. The conditions noted are these: 0.6 mM ATP (KM).
The test system of experiment [2] is collagen-induced arthritis. Nature of the experiment: In Vivo Rat Collagen-Induced Arthritis Model. The conditions noted are these: Lewis rat CIA; for days on which hind paw swelling in CIA rats was significantly reduced (t-test, p<0.05 vs. vehicle): paw volume by plethysmograph. Here is the method: In Vivo Rat Collagen-Induced Arthritis Model.
Efficacy of IRAK4 compounds of the present invention was also evaluated in a rat in vivo model of rheumatoid arthritis (M. Hegen, J. C. Keith, Jr, M. Collins, C. L. Nickerson-Nutter, Ann. Rheum. Dis. 2008, 67, 1505-1515). An exemplary protocol for this in vivo model follows.
Female Lewis rats, approximately 7 weeks old, were immunized with an emulsion of type II collagen (CII) and incomplete Freund's adjuvant (IFA) on day 0 and received a boost of CII/IFA on day 7. Hind paw volume increase was taken by plethysmograph. Animals were randomly enrolled into treatment groups based on the development of disease. Beginning on day 11 post immunization, rats were enrolled into random treatment groups based on an increase in a single hind paw volume compared to day 7 post immunization baseline measurements.
Ten rats were enrolled per treatment group with the exception of the naive control group, which contained two rats. Day 0 was designated as the first treatment day, and paw measurements are taken daily by plethysmograph. The rats were weighed on a daily basis.
IRAK4 inhibitors are efficacious in the Lewis rat model of collagen-induced arthritis.

Sequence of human IRAK4 FL (Full Length) (Q9NWZ3 whole entry): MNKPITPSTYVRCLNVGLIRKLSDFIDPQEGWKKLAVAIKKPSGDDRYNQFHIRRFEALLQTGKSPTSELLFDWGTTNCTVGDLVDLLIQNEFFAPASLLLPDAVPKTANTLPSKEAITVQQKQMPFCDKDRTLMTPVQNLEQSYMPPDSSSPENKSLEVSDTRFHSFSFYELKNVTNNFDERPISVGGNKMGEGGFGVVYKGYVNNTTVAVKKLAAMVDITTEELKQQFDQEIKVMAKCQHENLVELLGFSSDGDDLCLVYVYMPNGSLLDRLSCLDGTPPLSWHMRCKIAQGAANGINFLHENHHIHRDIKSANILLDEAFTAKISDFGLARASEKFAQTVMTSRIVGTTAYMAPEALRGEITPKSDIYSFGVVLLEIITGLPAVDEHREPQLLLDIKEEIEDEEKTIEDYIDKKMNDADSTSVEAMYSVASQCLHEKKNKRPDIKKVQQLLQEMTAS

As for `COc1cc2c(OC[C@@H]3CCC(=O)N3)cccc2cc1C(N)=O` [Example 173, 3-methoxy-5-{[(2S)-5-oxopyrrolidin-2-yl]methoxy}naphthalene-2-carboxamide], the “% inhib TNF” value in the experiment with serum TNF (dose 30 mpk) was 55%; in the experiment on serum TNF (dose 100 mpk), 98%. For the molecule `CC(C)Oc1cc2c(OC[C@@H]3C[C@@H](C4(O)COC4)C(=O)N3)nccc2cc1C(N)=O` [Example 193, 1-{[(2S,4S)-4-(3-hydroxyoxetan-3-yl)-5-oxopyrrolidin-2-yl]methoxy}-7-(propan-2-yloxy)isoquinoline-6-carboxamide], the pIC50 in experiment [1] was 6.62. For the molecule `CC(C)Oc1cc2c(OC[C@@H]3CCC(=O)N3)nccc2cc1C(N)=O` [Example 26, 1-{[(2S)-5-oxopyrrolidin-2-yl]methoxy}-7-(propan-2-yloxy)isoquinoline-6-carboxamide], the “hind paw swelling (delta paw volume)” value in experiment [2] (10 mg/kg PO, BID) was “transiently significant reduction in hind paw swelling only on Day 5 and Day 6”; in experiment [2] (therapeutic treatment BID daily for 8 days, t-test p<0.05 vs. vehicle), “reduced the hind paw swelling in CIA rats significantly”. Moreover, the “days on which hind paw swelling in CIA rats was significantly reduced (t-test, p<0.05 vs. vehicle)” value in experiment [2] (30 mg/kg PO, BID, therapeutic treatment for 8 days) is recorded as “Day 2-Day 8”; in experiment [2] (100 mg/kg PO, BID, therapeutic treatment for 8 days) it was “Day 1-Day 8 (end)”.

`Cc1ccc(-n2nc(C(C)(C)C)cc2NC(=O)Nc2ccc(OCCN3CCOCC3)c3ccccc23)cc1` [BIRB796, reference compound]: the “days on which hind paw swelling in CIA rats was significantly reduced (t-test, p<0.05 vs. vehicle)” value in experiment [2] (30 mg/kg PO, QD, positive control (p38 inhibitor)) is on record as “Day 1-Day 8”. As for `COc1cc2c(OC[C@H]3NC(=O)[C@@H](F)[C@H]3C)nccc2cc1C(N)=O` [Example 189, 1-{[(2S,3S,4S)-4-fluoro-3-methyl-5-oxopyrrolidin-2-yl]methoxy}-7-methoxyisoquinoline-6-carboxamide], the “% inhib TNF” value in the experiment with serum TNF (dose 30 mpk) is on record as 40%. For `COc1cc2c(OC[C@@H]3C[C@](C)(F)C(=O)N3)cccc2cc1C(N)=O` [Example 194, 5-{[(2S,4S)-4-fluoro-4-methyl-5-oxopyrrolidin-2-yl]methoxy}-3-methoxynaphthalene-2-carboxamide], the “% inhib TNF” value in the experiment with serum TNF (dose 30 mpk) amounted to 76%.
